Experimental data from patent US20030224470A1, “Method of diagnosing statin myopathy” (priority 2002, published 2003).
Each block holds one molecule with its values, some of them ahead of it.

Columns and labels:
[1] = Muscular strength tests: hip abduction and flexion, Nicholas Manual Muscle Tester; format: in vivo, patients
Source text: (§1) The association of increased levels of 3MGA with statin myopathy was discovered in a study of four patients identified among the first 20 patients randomly assigned in an ongoing, unfunded, doubleblinded, crossover clinical trial that had been approved by an investigational review board. Patients who had muscle symptoms during statin therapy that resolved when they were not receiving statins for 2 weeks were recruited from a clinical research group. Eligible patients had to have normal creatine kinase levels while they were experiencing symptoms. End points were 1) whether patients could accurately identify blinded statin therapy, 2) standard measures of functional capacity and muscle strength, 3) standard measures of biochemical properties of blood, urine and muscle specimens and 4) analysis of muscle biopsy for pathology. The muscular strength tests during both placebo use and statin therapy included hip abduction and flexion measured by Nicholas Manual Muscle Tester (Lafayette Instrument Co., Lafayette, Ind.) The standard measures for biochemical alterations included blood, urine and muscle biopsy analysis for levels of endogenous factors and drug. Analysis of muscle biopsy for pathology included general histology of the samples and detection of various markers involved in metabolism.

[2] = Serum creatine kinase level during statin therapy; format: in vivo, patients; details: normal range 0-3.26 μkat/L
Source text: as §1
The creatine kinase level remained normal in these patients every time they became myopathic both before and during the trial. The presence of a normal creatine kinase level has previously been used to argue against myopathy in patients with muscle symptoms during statin therapy.

[3] = Urine organic acid analysis for 3-methylglutaconic acid (3MGA); format: in vivo, patients
[4] = Clinical muscle symptoms during statin therapy; format: in vivo, patients
Source text: as §1

Statin level in patients = format: in vivo
Source text: as §1
All four patients in the study had normal statin levels (TABLE 1).

[5] = Muscle biopsy pathology (histology, metabolic markers); format: in vivo, patients; details: Patient 3; during atorvastatin therapy
Source text: as §1, with “metabolism. […]” for “metabolism.”

[6] = Patient 1, Cerivistatin 0.4 mg/d listed first
[7] = Patient 2, lovastatin 40 mg/d, simvastatin added to niacin
[8] = Patient 1, 4 years of simvastatin therapy, brief trial of atorvastatin
[9] = Patient 3, Atorvastatin 20 mg/d
[10] = Patient 4, atorvastatin 10 mg/d

Hip Abduction (Strength) On Statin [1, 6]: 4.1 kg
Hip Flexion (Strength) On Statin [1, 6]: 8.0 kg
Creatine Kinase Level during Statin Therapy ([2]; Patient 1): 0.63 μkat/L
3-Methylglutaconic acid levels On Statin ([3]; Patient 1, normal range 0-9 mmol/mol creatinine): 21 mmol/mol
Compound: COCc1c(C(C)C)nc(C(C)C)c(/C=C/[C@@H](O)C[C@@H](O)CC(=O)O)c1-c1ccc(F)cc1 [Cerivistatin]

Muscle symptoms during therapy [4, 7]: muscle pains and weakness
Compound: CC[C@H](C)C(=O)O[C@H]1C[C@@H](C)C=C2C=C[C@H](C)[C@H](CC[C@@H]3C[C@@H](O)CC(=O)O3)[C@H]21 [lovastatin]

Hip Abduction (Strength) On Statin ([1]; Patient 2, Simvastatin 40 mg/d): 11.6 kg
Hip Flexion (Strength) On Statin ([1]; Patient 2, Simvastatin 40 mg/d): 9.6 kg
Statin Level (Statin level in patients; Patient 1): 1.4 (Sim- ngEq/cm^3
Statin Level (Statin level in patients; Patient 2, Simvastatin 40 mg/d): 16.3 (Sim- ngEq/cm^3
Creatine Kinase Level during Statin Therapy ([2]; Patient 2, Simvastatin 40 mg/d): 0.73 μkat/L
3-Methylglutaconic acid levels On Statin ([3]; Patient 2, Simvastatin 40 mg/d, normal range 0-9 mmol/mol creatinine): 11 mmol/mol
Compound: CCC(C)(C)C(=O)O[C@H]1C[C@@H](C)C=C2C=C[C@H](C)[C@H](CC[C@@H]3C[C@@H](O)CC(=O)O3)[C@H]21 [Simvastatin]
Muscle symptoms during therapy [4, 8]: muscle aches and decreased exercise tolerance
Muscle symptoms during therapy [4, 7]: muscle aches, weakness, and shortness of breath with exertion

Hip Abduction (Strength) On Statin [1, 9]: 6.3 kg
Hip Flexion (Strength) On Statin [1, 9]: 14.3 kg
Hip Abduction (Strength) On Statin [1, 10]: 12.9 kg
Hip Flexion (Strength) On Statin [1, 10]: 24.1 kg
Statin Level (Statin level in patients; [9]): 10.9 (Ator- ngEq/cm^3
Creatine Kinase Level during Statin Therapy [2, 9]: 2.30 μkat/L
Creatine Kinase Level during Statin Therapy ([2]; Patient 4, Atorvastatin 10 mg/d): 1.39 μkat/L
Muscle symptoms during therapy [4, 8]: Symptoms did not change
Muscle symptoms during therapy [4, 10]: leg aches when climbing stairs
Time to onset of leg aches [4, 10]: ≤ 2 weeks
Compound: CC(C)c1c(C(=O)Nc2ccccc2)c(-c2ccccc2)c(-c2ccc(F)cc2)n1CC[C@@H](O)C[C@@H](O)CC(=O)O [Atorvastatin]
Muscle biopsy findings during therapy [5]: increased lipid droplets, ragged red fibers, and cytochrome oxidase—negative muscle fibers
Muscle symptoms during therapy ([4]; Patient 3, atorvastatin 20 mg/d for 2 years): aching and weakness of the shoulder, hip, and thigh
